Counter-ions that a name gives are not always drawn.
Columns and labels:
gastric lesions in rats = details: lesions induced by taurocholate acid, aspirin or indomethacin, J Pharmacol Exp Ther 1992, 263(1), 374-380; cited from earlier work
human EP1 receptor [1] = target: T1, human EP1 receptor (Homo sapiens, UniProt P34995); assay: human EP1 calcium mobilisation assay; assay type: cell-based; details: human EP1, PGE2-induced calcium mobilisation in CHO-K1 cells; free bases or sodium salts; averages of a number of experiments; read-out: functional pKi value (converted)
T1 construct: expressed in transfected cells; host or cells: CHO-K1
T1 sequence (P34995 1-402): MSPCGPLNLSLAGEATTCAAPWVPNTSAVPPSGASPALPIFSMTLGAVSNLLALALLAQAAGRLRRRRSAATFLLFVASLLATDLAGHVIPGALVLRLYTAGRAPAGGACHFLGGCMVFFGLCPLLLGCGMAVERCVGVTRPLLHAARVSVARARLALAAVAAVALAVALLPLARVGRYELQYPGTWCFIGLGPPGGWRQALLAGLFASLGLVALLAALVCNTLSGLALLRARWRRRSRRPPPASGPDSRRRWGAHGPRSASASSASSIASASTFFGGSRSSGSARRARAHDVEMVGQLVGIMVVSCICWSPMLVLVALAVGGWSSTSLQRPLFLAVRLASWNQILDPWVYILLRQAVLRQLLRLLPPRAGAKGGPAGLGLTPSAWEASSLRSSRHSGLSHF
In short: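 CHO-K1 cells stably expressing human EP1, loaded with Fluo-4 after 24 h at 37° C; compounds added before PGE2 challenge. Inhibition of PGE2-induced [Ca2+]i rise read by FLIPR fluorescence; pIC50 from curve fitting of half-maximal inhibition.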

human EP1 receptor [2] = target: T1, human EP1 receptor; assay: Binding assay for the human prostanoid EP1 receptor (competition with [3H]-PGE2); details: binding to human EP1 receptor, [3H]-PGE2 competition, CHO-K1 cell membranes; averages of a number of experiments; read-out: pIC50 value (converted)
Description: Competition assay using [^3H]-PGE2.
Compound potencies are determined using a radioligand binding assay. In this assay compound potencies are determined from their ability to compete with tritiated prostaglandin E2 ([^3H]-PGE2) for binding to the human EP1 receptor.
This assay utilises Chinese hamster ovary-K1 (CHO-K1) cells into which a stable vector containing the EP1 cDNA has previously been transfected. Cells are cultured in suitable flasks containing culture medium such as DMEM:F-12 supplemented with 10% v/v foetal calf serum, 2 mM L-glutamine, 0.25 mg/ml geneticin, 10 μg/ml puromycin and 10 μM indomethacin.
Cells are detached from the culture flasks by incubation in calcium and magnesium free phosphate buffered saline containing 1 mM disodium ethylenediaminetetraacetic acid (Na2EDTA) and 10 μM indomethacin for 5 min. The cells are isolated by centrifugation at 250×g for 5 mins and suspended in an ice cold buffer such as 50 mM Tris, 1 mM Na2EDTA, 140 mM NaCl, 10 μM indomethacin (pH 7.4). The cells are homogenised using a Polytron tissue disrupter (2×10 s burst at full setting), centrifuged at 48,000×g for 20 mins and the pellet containing the membrane fraction is washed (optional) three times by suspension and centrifugation at 48,000×g for 20 mins. The final membrane pellet is suspended in an assay buffer such as 10 mM 2-[N-morpholino]ethanesulphonic acid, 1 mM Na2EDTA, 10 mM MgCl2 (pH 6). Aliquots are frozen at −80° C. until required.
For the binding assay the cell membranes, competing compounds and [^3H]-PGE2 (3 nM final assay concentration) are incubated in a final volume of 100 μl for 30 min at 30° C. All reagents are prepared in assay buffer. Reactions are terminated by rapid vacuum filtration over GF/B filters using a Brandell cell harvester. The filters are washed with ice cold assay buffer, dried and the radioactivity retained on the filters is measured by liquid scintillation counting in Packard TopCount scintillation counter.
The data are analysed using non linear curve fitting techniques to determine the concentration of compound producing 50% inhibition of specific binding (IC50).

[3] = test system: rodent model of post-operative pain; details: Anesthesia and Analgesia 2001, 92, 233-238; cited from earlier work
[4] = test system: rat model of chronic constriction injury; details: Anesthesia and Analgesia 2001, 93, 1012-7; cited from earlier work

| SMILES | Ki (human EP1 receptor [1]) | IC50 (human EP1 receptor [2]) | gastric lesions (gastric lesions in rats) | mechanical hyperalgesia [3] | hyperalgesia and allodynia [4] |
| --- | --- | --- | --- | --- | --- |
| O=C(O)Cc1ccc(CCNS(=O)(=O)c2ccc(Cl)cc2)cc1 [BM 13505] | – | – | inhibit gastric lesions | – | – |
| O=C(O)c1ccc(Cc2cc(Cl)ccc2OCc2c(F)cc(F)cc2F)o1 [Example 20, Sodium 5-[(5-chloro-2-{[(2,4,6-trifluorophenyl)methyl]oxy}phenyl)methyl]-2-furancarboxylate] | < 1000 nM | ≤ 10 nM | – | – | – |
| O=C(O)c1ccc(Cc2cc(Cl)ccc2OCc2cc(F)c(F)cc2F)o1 [Example 25, Sodium 5-[(5-chloro-2-{[(2,4,5-trifluorophenyl)methyl]oxy}phenyl)methyl]-2-furancarboxylate] | ≤ 10 nM | ≤ 10 nM | – | – | – |
| O=C(Nc1c(F)cccc1F)c1ccc(Cc2cc(Cl)ccc2OCc2ccc(F)cc2F)o1 [Example 36, 5-[(5-Chloro-2-{[(2,4-difluorophenyl)methyl]oxy}phenyl)methyl]-N-(2,6-difluorophenyl)-2-furancarboxamide] | ≤ 10 nM | ≤ 10 nM | – | – | – |
| Cc1cc(Cl)ccc1S(=O)(=O)NC[C@H]1C2CCC(CC2)[C@@H]1/C=C\CCCC(=O)O [ONO-8711] | – | – | – | inhibits mechanical hyperalgesia | reduces hyperalgesia and allodynia |

Now from value to molecule, other results behind:

| Ki (human EP1 receptor [1]) | IC50 (human EP1 receptor [2]) | SMILES | gastric lesions (gastric lesions in rats) | mechanical hyperalgesia [3] | hyperalgesia and allodynia [4] |
| --- | --- | --- | --- | --- | --- |
| < 1000 nM | ≤ 10 nM | COCCN(C)Cc1ccc2nc(-c3ccc(Cc4cc(Cl)ccc4OCC(C)C)o3)[nH]c2c1 [Example 148, N-({2-[5-({5-Chloro-2-[(2-methylpropyl)oxy]-phenyl}methyl)-2-furanyl]-1H-benzimidazol-5-yl}methyl)-N-methyl-2-(methyloxy)ethanaminedihydrochloride] | – | – | – |
| < 1000 nM | ≤ 10 nM | CC(C)COc1ccc(Cl)cc1Cc1ccc(-c2nc3cc(N4CCN(C)CC4)ccc3[nH]2)o1 [Example 111, 2-[5-({5-Chloro-2-[(2-methylpropyl)oxy]-phenyl}methyl)-2-furanyl]-5-(4-methyl-1-piperazinyl)-1H-benzimidazoletrihydrochloride] | – | – | – |
| < 1000 nM | ≤ 10 nM | CC(C)COc1ccc(Cl)cc1Cc1ccc(-c2nc3ccc(N(C)C)cc3[nH]2)o1 [Example 113, 2-[5-({5-Chloro-2-[(2-methylpropyl)oxy]-phenyl}methyl)-2-furanyl]-N,N-dimethyl-1H-benzimidazol-5-aminedihydrochloride] | – | – | – |
| < 1000 nM | ≤ 10 nM | CC(C)COc1ccc(Cl)cc1Cc1ccc(C(=O)O)o1 [Example 10, Sodium 5-({5-chloro-2-[(2-methylpropyl)oxy]phenyl}methyl)-2-furancarboxylate] | – | – | – |
| < 1000 nM | ≤ 10 nM | COc1ccc2[nH]c(-c3ccc(Cc4cc(Cl)ccc4OCC(C)C)o3)nc2c1 [Example 105, 2-[5-({5-Chloro-2-[(2-methylpropyl)oxy]-phenyl}methyl)-2-furanyl]-5-(methyloxy)-1H-benzimidazole] | – | – | – |
| < 1000 nM | ≤ 10 nM | CC(C)COc1ccc(Cl)cc1Cc1ccc(-c2nc3ccc(CO)cc3[nH]2)o1 [Example 132] | – | – | – |
| < 1000 nM | ≤ 10 nM | CNCc1ccc2[nH]c(-c3ccc(Cc4cc(Cl)ccc4OCC(C)C)o3)nc2c1 [Example 166, ({2-[5-({5-Chloro-2-[(2-methylpropyl)oxy]phenyl}methyl)-2-furanyl]-1H-benzimidazol-5-yl}methyl)methylamine dihydrochloride] | – | – | – |

— patent US20080287430A1, “Furan Compounds Useful As Ep1 Receptor Antagonists” (priority 2005, published 2008)
